Test results from patent US20150141580A1, “OPTIMIZED DRUG CONJUGATES” (SynDevRx, Inc., priority 2010, published 2015).

Assay: Pharmacokinetics of polymer conjugate, plasma SDX-7539 by LC-MS/MS
Format: in vivo, Sprague-Dawley rats
Settings: after SDX-7539 30 mg/kg or SDX-7320 200 mg/kg IV, rat
Description: FIG. 6 is a graph showing the plasma concentration of the active metabolite, SDX-7539, as a function of time in Sprague-Dawley rats, to which either the polymer conjugate SDX-7320 (single bolus, intravenous injection, 200 mg/kg) or the small molecule SDX-7539 (single bolus, intravenous injection, 30 mg/kg) has been administered.
The polymer conjugate, SDX-7320, or the in vivo release product, SDX-7539 were administered to Sprague-Dawley rats (N=3). Blood was collected over 48 hours after dosing to determine the plasma concentration of SDX-7539 by LC-MS/MS. The LLOQ for SDX-7539 was 2.5 nM. The terminal elimination half-life for SDX-7539 was estimated by fitting a linear regression to the In[SDX-7539] versus time data. […] Cmax for the polymer is about 2% of the value for the small molecule.

AUC for SDX-7539: comparable
SMILES: CO[C@@H]1[C@H](OC(=O)NC2CCC(N)CC2)CC[C@]2(CO2)[C@H]1[C@@]1(C)O[C@@H]1CC=C(C)C (stereo partly shown) [SDX-7539]
